{"source": "patent US9271967B2", "about": "“1,2,4-triazolo[4,3-a]pyridine derivatives and their use as positive allosteric modulators of mGluR2 receptors” (Janssen Pharmaceuticals, Inc., priority 2010, dated 2016)", "key": {"[1]": {"biological_target": "T1, human mGluR2 receptor (Homo sapiens, UniProt Q14416)", "T1 construct": "expressed in transfected cells; host or cells: CHO cells", "T1 sequence (Q14416 19-872)": "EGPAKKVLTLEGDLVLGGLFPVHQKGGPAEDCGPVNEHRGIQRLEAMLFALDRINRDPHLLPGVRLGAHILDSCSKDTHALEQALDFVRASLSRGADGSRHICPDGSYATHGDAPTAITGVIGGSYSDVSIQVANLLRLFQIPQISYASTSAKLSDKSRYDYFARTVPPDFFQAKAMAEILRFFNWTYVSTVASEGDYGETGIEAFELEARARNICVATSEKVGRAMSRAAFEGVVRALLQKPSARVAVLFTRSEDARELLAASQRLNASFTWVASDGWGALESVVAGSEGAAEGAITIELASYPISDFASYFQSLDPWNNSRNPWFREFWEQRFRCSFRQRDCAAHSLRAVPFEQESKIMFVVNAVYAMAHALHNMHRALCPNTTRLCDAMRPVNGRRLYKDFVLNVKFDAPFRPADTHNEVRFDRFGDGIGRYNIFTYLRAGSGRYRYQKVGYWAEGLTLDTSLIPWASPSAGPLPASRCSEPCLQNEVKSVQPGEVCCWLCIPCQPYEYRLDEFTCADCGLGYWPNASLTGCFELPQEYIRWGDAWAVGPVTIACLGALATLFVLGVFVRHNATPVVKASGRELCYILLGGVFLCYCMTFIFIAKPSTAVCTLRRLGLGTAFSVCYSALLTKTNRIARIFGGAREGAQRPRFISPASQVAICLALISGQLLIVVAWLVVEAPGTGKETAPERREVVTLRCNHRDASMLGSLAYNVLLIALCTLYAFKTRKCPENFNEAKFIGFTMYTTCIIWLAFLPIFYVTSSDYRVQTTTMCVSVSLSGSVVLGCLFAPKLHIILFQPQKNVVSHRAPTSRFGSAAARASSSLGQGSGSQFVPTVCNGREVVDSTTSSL", "assay": "[35S]GTPγS binding assay (PAM assay)", "assay_type": "biochemical", "details": "in presence of glutamate at EC20; for Emax / GTPγS-hmGluR2 PAM Emax: maximal % effect relative to the control glutamate response; for Emax: read-out: GTPγS-hmGluR2 PAM Emax; for EC50: membranes of CHO cells transfected with human mGluR2, -log EC50 in M, read-out: GTPγS-hmGluR2 PAM pEC50 (converted)", "experimental": "The [^35S]GTPγS binding assay is a functional membrane-based assay used to study G-protein coupled receptor (GPCR) function whereby incorporation of a non-hydrolysable form of GTP, [^35S]GTPγS (guanosine 5′-triphosphate, labelled with […] ^35S), is measured. The G-protein α subunit catalyzes the exchange of guanosine 5′-diphosphate (GDP) by guanosine triphosphate (GTP) and on activation of the GPCR by an agonist, [^35S]GTPγS, becomes incorporated and cannot be cleaved to continue the exchange cycle (Harper (1998) Current Protocols in Pharmacology 2.6.1-10, John Wiley & Sons, Inc.). […] Here we describe the use of the [^35S]GTPγS binding assay using membranes from cells transfected with the human mGluR2 receptor and adapted from Schaffhauser et al. ((2003) Molecular Pharmacology 4:798-810) for the detection of the positive allosteric modulation (PAM) properties of the compounds of this invention.\nCHO-cells were cultured to pre-confluence and stimulated with 5 mM butyrate for 24 h. Cells were then collected by scraping in PBS and cell suspension was centrifuged (10 min at 4000 RPM in benchtop centrifuge). Supernatant was discarded and pellet gently resuspended in 50 mM Tris-HCl, pH 7.4 by mixing with a vortex and pipetting up and down. The suspension was centrifuged at 16,000 RPM (Sorvall RC-5C plus rotor SS-34) for 10 minutes and the supernatant discarded. The pellet was homogenized in 5 mM Tris-HCl, pH 7.4 using an ultra-turrax homogenizer and centrifuged again (18,000 RPM, 20 min, 4° C.). The final pellet was resuspended in 50 mM Tris-HCl, pH 7.4 and stored at −80° C. in appropriate aliquots before use. Protein concentration was determined by the Bradford method (Bio-Rad, USA) with bovine serum albumin as standard.\nMeasurement of mGluR2 positive allosteric modulatory activity of test compounds was performed as follows. Test compounds and glutamate were diluted in assay buffer containing 10 mM HEPES acid, 10 mM HEPES salt, pH 7.4, 100 mM NaCl, 3 mM MgCl2 and 10 μM GDP. Human mGlu2 receptor-containing membranes were thawed on ice and diluted in assay buffer supplemented with 14 μg/ml saponin. Membranes were pre-incubated with compound alone or together with a predefined (˜EC20) concentration of glutamate (PAM assay) for 30 min at 30° C. After addition of [^35S]GTPγS (f.c. 0.1 nM), assay mixtures were shaken briefly and further incubated to allow [^35S]GTPγS incorporation on activation (30 minutes, 30° C.). Final assay mixtures contained 7 μg of membrane protein in 10 mM HEPES acid, 10 mM HEPES salt, pH 7.4, 100 mM NaCl, 3 mM MgCl2, 10 μM GDP and 10 μg/ml saponin. Total reaction volume was 200 μl. Reactions were terminated by rapid filtration through Unifilter-96 GF/B plates (Perkin Elmer, Mass., USA) using a 96-well filtermate universal harvester. Filters were washed 6 times with ice-cold 10 mM NaH2PO4/10 mM Na2HPO4, pH 7.4. Filters were then air-dried, and 40 μl of liquid scintillation cocktail (Microscint-O) was added to each well. Membrane-bound radioactivity was counted in a Microplate Scintillation and Luminescence Counter from Perkin Elmer.\nThe concentration-response curves of representative compounds of the present invention—obtained in the presence of EC20 of mGluR2 agonist glutamate to determine positive allosteric modulation (PAM)—were generated using the Lexis software interface (developed at J&J). Data were calculated as % of the control glutamate response, defined as the maximal response that is generated upon addition of glutamate alone. Sigmoid concentration-response curves plotting these percentages versus the log concentration of the test compound were analyzed using non-linear regression analysis. The concentration producing half-maximal effect is then calculated as EC50. The pEC50 values below were calculated as the −log EC50, when the EC50 is expressed in M. Emax is defined as relative maximal effect (i.e. maximal % effect relative to the control glutamate response)."}}, "data": [{"molecule": "FC(F)(F)c1c(CNC2CC2c2ccccc2)ccn2c(CC3CC3)nnc12", "note": "(stereo not drawn) [Co. no. 27, Trans-N-{[3-(Cyclopropylmethyl)-8-(trifluoromethyl)[1,2,4]triazolo[4,3-a]pyridin-7-yl]methyl}-2-phenylcyclopropanamine]", "values": [{"measurement": "Emax", "setting": "[1]", "value": 267, "unit": "%"}, {"measurement": "EC50", "setting": "[1]", "value": 871, "unit": "nM"}]}, {"molecule": "FC(F)(F)c1c(CN[C@H]2CC[C@H](c3ccccc3)CC2)ccn2c(CC3CC3)nnc12", "note": "[Co. no. 3, 3-(Cyclopropylmethyl)-N-(trans-4-phenylcyclohexyl)-8-(trifluoromethyl)-1,2,4-triazolo[4,3-a]pyridine-7-methanamine]", "values": [{"measurement": "melting point", "value": 157.4, "unit": "°C"}, {"measurement": "Emax", "setting": "[1]", "value": 235, "unit": "%"}, {"measurement": "EC50", "setting": "[1]", "value": 234, "unit": "nM"}]}, {"molecule": "FC(F)(F)c1c(CNC2Cc3ccccc3C2)ccn2c(CC3CC3)nnc12", "note": "[Co. no. 6, 3-(Cyclopropylmethyl)-N-(2,3-dihydro-1H-inden-2-yl)-8-(trifluoromethyl)-1,2,4-triazolo[4,3-a]pyridine-7-methanamine]", "values": [{"measurement": "Emax", "setting": "[1]", "value": 227, "unit": "%"}, {"measurement": "EC50", "setting": "[1]", "value": 794, "unit": "nM"}]}, {"molecule": "FC(F)(F)c1c(CNC2CCOc3ccccc32)ccn2c(CC3CC3)nnc12", "note": "(single isomer, unassigned) [Co. no. 28b, (4*S)—N-{[3-(Cyclopropylmethyl)-8-(trifluoromethyl) [1,2,4]triazolo[4,3-a]pyridin-7-yl]methyl}-3,4-dihydro-2H-chromen-4-amine]", "values": [{"measurement": "GTPγS-hmGluR2 PAM Emax", "setting": "[1]; listed as 28b", "value": 285, "unit": "%"}, {"measurement": "EC50", "setting": "[1]", "value": 575, "unit": "nM"}]}, {"molecule": "Clc1c(CN[C@H]2CC[C@H](c3ccccc3)CC2)ccn2c(CC3CC3)nnc12", "note": "[Co. no. 13, 8-Chloro-3-(cyclopropylmethyl)-N-(trans-4-phenylcyclohexyl)-1,2,4-triazolo-[4,3-a]pyridine-7-methanamine]", "values": [{"measurement": "Emax", "setting": "[1]", "value": 243, "unit": "%"}]}, {"molecule": "CCc1nnc2c(C(F)(F)F)c(CN[C@H]3CC[C@@H](c4ccccc4)CC3)ccn12", "note": "[Co. no. 8, 3-Ethyl-N-(cis-4-phenylcyclohexyl)-8-(trifluoromethyl)-1,2,4-triazolo[4,3-a]pyridine-7-methanamine]", "values": [{"measurement": "Emax", "setting": "[1]", "value": 228, "unit": "%"}, {"measurement": "EC50", "setting": "[1]", "value": 324, "unit": "nM"}]}, {"molecule": "CCc1nnc2c(C(F)(F)F)c(CN[C@H]3CC[C@H](c4ccccc4)CC3)ccn12", "note": "[Co. no. 4, 3-Ethyl-N-(trans-4-phenylcyclohexyl)-8-(trifluoromethyl)-1,2,4-triazolo[4,3-a]-pyridine-7-methanamine]", "values": [{"measurement": "Emax", "setting": "[1]", "value": 197, "unit": "%"}, {"measurement": "EC50", "setting": "[1]", "value": 1200, "unit": "nM"}]}, {"molecule": "FC(F)(F)c1c(CN[C@@H]2CCO[C@@H](c3ccccc3)C2)ccn2c(CC3CC3)nnc12", "note": "[Co. no. 30, (2R,4R)—N-{[3-(Cyclopropylmethyl)-8-(trifluoromethyl)[1,2,4]triazolo[4,3-a]pyridin-7-yl]methyl}-2-phenyltetrahydro-2H-pyran-4-amine]", "values": [{"measurement": "melting point", "value": 139.6, "unit": "°C"}, {"measurement": "Emax", "setting": "[1]", "value": 239, "unit": "%"}, {"measurement": "EC50", "setting": "[1]", "value": 1200, "unit": "nM"}]}, {"molecule": "CCOCc1nnc2c(C(F)(F)F)c(CN[C@H]3CC[C@H](c4ccccc4)CC3)ccn12", "note": "[Co. no. 11, 3-(Ethoxymethyl)-N-(trans-4-phenylcyclohexyl)-8-(trifluoromethyl)-1,2,4-triazolo-[4,3-a]pyridine-7-methanamine]", "values": [{"measurement": "Emax", "setting": "[1]", "value": 278, "unit": "%"}]}, {"molecule": "Clc1c(CN[C@H]2CC[C@@H](c3ccccc3)CC2)ccn2c(CC3CC3)nnc12", "note": "[Co. no. 12, 8-Chloro-3-(cyclopropylmethyl)-N-(cis-4-phenylcyclohexyl)-1,2,4-triazolo-[4,3-a]pyridine-7-methanamine]", "values": [{"measurement": "Emax", "setting": "[1]", "value": 257, "unit": "%"}, {"measurement": "EC50", "setting": "[1]", "value": 589, "unit": "nM"}]}, {"molecule": "Fc1ccc(N2CCC(NCc3ccn4c(CC5CC5)nnc4c3C(F)(F)F)CC2)c(F)c1", "note": "[Co. no. 2, 3-(Cyclopropylmethyl)-N-[1-(2,4-difluorophenyl)-4-piperidinyl]-8-(trifluoromethyl)-1,2,4-triazolo[4,3-a]pyridine-7-methanamine]", "values": [{"measurement": "Emax", "setting": "[1]", "value": 321, "unit": "%"}, {"measurement": "EC50", "setting": "[1]", "value": 617, "unit": "nM"}]}, {"molecule": "FC(F)(F)c1c(CNC2CCOc3ccccc32)ccn2c(CC3CC3)nnc12", "note": "(single isomer, unassigned) [Co. no. 28a, (4*R)—N-{[3-(Cyclopropylmethyl)-8-(trifluoromethyl) [1,2,4]triazolo[4,3-a]pyridin-7-yl]methyl}-3,4-dihydro-2H-chromen-4-amine]", "values": [{"measurement": "GTPγS-hmGluR2 PAM Emax", "setting": "[1]; listed as 28a", "value": 257, "unit": "%"}, {"measurement": "EC50", "setting": "[1]", "value": 794, "unit": "nM"}]}, {"molecule": "FC(F)(F)c1c(CNC2COCC2c2ccccc2)ccn2c(CC3CC3)nnc12", "note": "(stereo not drawn) [Co. no. 31, Cis-N-{[3-(Cyclopropylmethyl)-8-(trifluoromethyl) [1,2,4]triazolo[4,3-a]pyridin-7-yl]methyl}-4-phenyltetrahydrofuran-3-amine]", "values": [{"measurement": "Emax", "setting": "[1]", "value": 201, "unit": "%"}]}, {"molecule": "FC(F)(F)c1c(CN[C@H]2CC[C@@H](c3ccccc3)CC2)ccn2c(CC3CC3)nnc12", "note": "[Co. no. 7, 3-(Cyclopropylmethyl)-N-(cis-4-phenylcyclohexyl)-8-(trifluoromethyl)-1,2,4-triazolo-[4,3-a]pyridine-7-methanamine]", "values": [{"measurement": "Emax", "setting": "[1]", "value": 263, "unit": "%"}, {"measurement": "EC50", "setting": "[1]", "value": 42.7, "unit": "nM"}]}, {"molecule": "FC(F)(F)c1c(CN[C@H]2CCO[C@H](c3ccccc3)C2)ccn2c(CC3CC3)nnc12", "note": "[Co. no. 29, (2S,4S)—N-{[3-(Cyclopropylmethyl)-8-(trifluoromethyl) [1,2,4]triazolo[4,3-a]pyridin-7-yl]methyl}-2-phenyltetrahydro-2H-pyran-4-amine]", "values": [{"measurement": "melting point", "value": 95.8, "unit": "°C"}, {"measurement": "Emax", "setting": "[1]", "value": 209, "unit": "%"}]}, {"molecule": "CCOCc1nnc2c(C(F)(F)F)c(CN[C@H]3CC[C@@H](c4ccccc4)CC3)ccn12", "note": "[Co. no. 10, 3-(Ethoxymethyl)-N-(cis-4-phenylcyclohexyl)-8-(trifluoromethyl)-1,2,4-triazolo-[4,3-a]pyridine-7-methanamine]", "values": [{"measurement": "Emax", "setting": "[1]", "value": 242, "unit": "%"}, {"measurement": "EC50", "setting": "[1]", "value": 170, "unit": "nM"}]}, {"molecule": "CCc1nnc2c(C(F)(F)F)c(CN[C@H]3CC[C@@H](c4ccc(F)cc4F)CC3)ccn12", "note": "[Co. no. 9, N-[Cis-4-(2,4-difluorophenyl)cyclohexyl]-3-ethyl-8-(trifluoromethyl)-1,2,4-triazolo[4,3-a]pyridine-7-methanamine]", "values": [{"measurement": "Emax", "setting": "[1]", "value": 209, "unit": "%"}, {"measurement": "EC50", "setting": "[1]", "value": 209, "unit": "nM"}]}]}
